Test system: 616215-338-R-J1-PDC spheroids with HUVEC/MSC, viability
Assay: Anticancer human tumor 616215-338-R-J1-PDC patient-derived colon adenocarcinoma cell line growth inhibition [PI3K]
Details: for IC50: curve of first compound; for viability, T/C: stronger effect = lower value
Source text: Combinatorial screen of targeted agents with the PI3K inhibitors inavolisib, alpelisib, duvelisib, and copanlisib in multi-cell type tumor spheroids
A high-throughput screen of multi-cell type tumor spheroids was designed to identify active combinations of targeted small molecules and PI3K pathway inhibitors. Complex spheroids include a stromal component modeled by human endothelial cells (HUVEC) and fibroblasts modeled by human mesenchymal stem cells (MSCs). The concentration ranges selected for each drug and investigational agent were based upon clinically achievable concentrations if the clinical Cmax of the agent was known.
Compounds. The drugs and investigational agents: inavolisib (NSC800729), alpelisib (NSC765974), duvelisib (NSC772469), copanlisib (NSC816437), ipatasertib (NSC767898), afuresertib (NSC778305), talazoparib (NSC767125), sapanisertib (NSC764658), selumetinib (NSC741078), tovorafenib (DAY101, NSC766906), vemurafenib (NSC761431), ravoxertinib (NSC781343), sotorasib (NSC818433), MRTX1133 (NSC 836407), abemaciclib (NSC 768073), palbociclib (NSC758247), venetoclax (NSC 766270), SY5609 (NSC837396), enzalutamide (NSC755605), and darolutamide (NSC825331), were obtained from the National Cancer Institute (NCI) Developmental Therapeutics Program Chemical Repository. The FDA-approved anticancer drug set is available from the NCI Developmental Therapeutics Program. […] The stock solutions were prepared in dimethyl sulfoxide (DMSO, Sigma-Aldrich, St. Louis, MO, cat. D2650) at 800-fold the tested concentration and stored at -70 degrees C prior to their use. All drugs and investigational agents were tested over a range starting from a high concentration at or near the clinical Cmax and decreasing in half-log increments. If the clinical Cmax for an agent had not been determined, the highest concentration tested was 10 microM.
Cell Culture. All cells were maintained in an incubator at 37 degrees C and 5% CO2 with 95% humidity. The PDC lines were cultured according to standard operating procedures established by the NCI PDMR (https://pdmr.cancer.gov/sops/default.htm). All PDCs were thawed and cultured in Matrigel-coated flasks prepared with a working solution of 1X Ham's F-12 nutrient mix, without supplementation (Invitrogen, Waltham, MA, cat. 11765054), 100 U/mL penicillin-streptomycin (Invitrogen, cat. 15140122), and 2.5% Matrigel (Corning Inc., Corning, NY, cat. 354248) for the first three passages. The 354836-022-R-J1-PDC, 475296-252-R-J1-PDC, and 997726-040-R-J2-PDC lines were cultured in 6A media, which includes advanced DMEM/F-12 (Thermo Fisher Scientific, cat. 12634028), 10 mM HEPES (Thermo Fisher Scientific, cat. 15630080), 1X GlutaMAX supplement (Thermo Fisher Scientific, cat. 35050061), 0.1 mg/mL primocin (InvivoGen, San Diego, CA, cat. ant-pm-2), 10% defined fetal bovine serum, heat inactivated (HyClone Laboratories Inc., Logan, UT, cat. SH30070.03HI), 50% L-WRN conditioned media (ATCC, cat. CRL-3276), 1.25 mM N-Acetyl-L-cysteine (Sigma-Aldrich, cat. A9165), 10 mM nicotinamide (Sigma-Aldrich, cat. N0636), 1X B-27 supplement (Thermo Fisher Scientific, cat. 17504044), 1X N-2 supplement (Thermo Fisher Scientific, cat. 17502048), and 10 microM Y-27632 dihydrochloride (Tocris Bioscience, Bristol, United Kingdom, cat. 1254). The 624824-186-R-J2-PDC line was cultured in 6C/Colon 1B media, which includes all 6A media components plus 50 ng/mL human EGF recombinant protein (Thermo Fisher Scientific, cat. PHG0311). […]

[1] = second compound 0.00316 µM, first compound 0.0316 µM
[2] = second compound 0.00316 µM, first compound 0.1 µM
[3] = second compound 0.00316 µM, first compound 0.316 µM
[4] = second compound 0.00316 µM, first compound 1 µM
[5] = second compound 0.00316 µM, first compound 3.16 µM
[6] = second compound 0.00316 µM, first compound 10 µM
[7] = second compound 0.01 µM, first compound 0.0316 µM
[8] = second compound 0.01 µM, first compound 0.1 µM
[9] = second compound 0.01 µM, first compound 0.316 µM
[10] = second compound 0.01 µM, first compound 1 µM
[11] = second compound 0.01 µM, first compound 3.16 µM
[12] = second compound 0.01 µM, first compound 10 µM
[13] = second compound 0.0316 µM, first compound 0.0316 µM
[14] = second compound 0.0316 µM, first compound 0.1 µM
[15] = second compound 0.0316 µM, first compound 0.316 µM
[16] = second compound 0.0316 µM, first compound 1 µM
[17] = second compound 0.0316 µM, first compound 3.16 µM
[18] = second compound 0.0316 µM, first compound 10 µM
[19] = second compound 0.1 µM, first compound 0.0316 µM
[20] = second compound 0.1 µM, first compound 0.1 µM
[21] = second compound 0.1 µM, first compound 0.316 µM
[22] = second compound 0.1 µM, first compound 1 µM
[23] = second compound 0.1 µM, first compound 3.16 µM
[24] = second compound 0.1 µM, first compound 10 µM
[25] = second compound 0.316 µM, first compound 0.0316 µM
[26] = second compound 0.316 µM, first compound 0.1 µM
[27] = second compound 0.316 µM, first compound 0.316 µM
[28] = second compound 0.316 µM, first compound 1 µM
[29] = second compound 0.316 µM, first compound 3.16 µM
[30] = second compound 0.316 µM, first compound 10 µM
[31] = second compound 1 µM, first compound 0.0316 µM
[32] = second compound 1 µM, first compound 0.1 µM
[33] = second compound 1 µM, first compound 0.316 µM
[34] = second compound 1 µM, first compound 1 µM
[35] = second compound 1 µM, first compound 3.16 µM
[36] = second compound 1 µM, first compound 10 µM
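Note: spheroids exposed to agents for seven days before the viability read.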

SMILES: CC1(C)CCC(CN2CCN(c3ccc(C(=O)NS(=O)(=O)c4ccc(NCC5CCOCC5)c([N+](=O)[O-])c4)c(Oc4cnc5[nH]ccc5c4)c3)CC2)=C(c2ccc(Cl)cc2)C1 + CC(Nc1ccc2c(c1)OCCn1cc(N3C(=O)OCC3C(F)F)nc1-2)C(N)=O
- IC50 (second compound 0.00316 µM): 4.6 µM
- IC50 (second compound 0.01 µM): 4.67 µM
- IC50 (second compound 0.0316 µM): 5.27 µM
- IC50 (second compound 0.1 µM): 5.25 µM
- IC50 (second compound 0.316 µM): 5.43 µM
- IC50 (second compound 1 µM): 5.18 µM
- viability, T/C [1]: 88.6%
- viability, T/C [2]: 95.9%
- viability, T/C [3]: 104%
- viability, T/C [4]: 101%
- viability, T/C [5]: 72.8%
- viability, T/C [6]: 2.83%
- viability, T/C [7]: 92.9%
- viability, T/C [8]: 101%
- viability, T/C [9]: 99.4%
- viability, T/C [10]: 106%
- viability, T/C [11]: 74.5%
- viability, T/C [12]: 2.57%
- viability, T/C [13]: 90.5%
- viability, T/C [14]: 94.3%
- viability, T/C [15]: 96.6%
- viability, T/C [16]: 102%
- viability, T/C [17]: 86.9%
- viability, T/C [18]: 3.65%
- viability, T/C [19]: 105%
- viability, T/C [20]: 97.8%
- viability, T/C [21]: 102%
- viability, T/C [22]: 93.2%
- viability, T/C [23]: 87.9%
- viability, T/C [24]: 1.87%
- viability, T/C [25]: 98.5%
- viability, T/C [26]: 86.5%
- viability, T/C [27]: 93.5%
- viability, T/C [28]: 102%
- viability, T/C [29]: 92.5%
- viability, T/C [30]: 2.04%
- viability, T/C [31]: 107%
- viability, T/C [32]: 104%
- viability, T/C [33]: 113%
- viability, T/C [34]: 103%
- viability, T/C [35]: 86.3%
- viability, T/C [36]: 1.64%

SMILES: C[C@@H](NC(=O)c1ncnc(N)c1Cl)c1ncc(C(=O)Nc2cc(C(F)(F)F)c(Cl)cn2)s1 + CC(Nc1ccc2c(c1)OCCn1cc(N3C(=O)OCC3C(F)F)nc1-2)C(N)=O
- IC50 (second compound 0.00316 µM): > 10 µM
- IC50 (second compound 0.01 µM): > 10 µM
- IC50 (second compound 0.0316 µM): > 10 µM
- IC50 (second compound 0.1 µM): > 10 µM
- IC50 (second compound 0.316 µM): > 10 µM
- IC50 (second compound 1 µM): 7.36 µM
- viability, T/C [1]: 103%
- viability, T/C [2]: 101%
- viability, T/C [3]: 107%
- viability, T/C [4]: 106%
- viability, T/C [5]: 96.5%
- viability, T/C [6]: 88.7%
- viability, T/C [7]: 102%
- viability, T/C [8]: 109%
- viability, T/C [9]: 98.1%
- viability, T/C [10]: 104%
- viability, T/C [11]: 93.3%
- viability, T/C [12]: 74.8%
- viability, T/C [13]: 95.5%
- viability, T/C [14]: 104%
- viability, T/C [15]: 101%
- viability, T/C [16]: 103%
- viability, T/C [17]: 115%
- viability, T/C [18]: 66%
- viability, T/C [19]: 100%
- viability, T/C [20]: 104%
- viability, T/C [21]: 115%
- viability, T/C [22]: 102%
- viability, T/C [23]: 99.5%
- viability, T/C [24]: 65.7%
- viability, T/C [25]: 121%
- viability, T/C [26]: 99%
- viability, T/C [27]: 94.8%
- viability, T/C [28]: 98.6%
- viability, T/C [29]: 85.6%
- viability, T/C [30]: 60.6%
- viability, T/C [31]: 101%
- viability, T/C [32]: 95.7%
- viability, T/C [33]: 88.1%
- viability, T/C [34]: 98%
- viability, T/C [35]: 73.7%
- viability, T/C [36]: 41.4%
